Measured values reported in paper PMC11500593, “Molecular cloning and biochemical characterization of indole-3-acetic acid methyltransferase from Japanese star anise (Illicium anisatum)” (Plant Biotechnology, 2024).

Test system: T1, IaIAMT
T1 construct: full-length cDNA from leaf RNA, N-terminal MBP fusion (pCold-MBP), E. coli BL21(DE3), purified on gelatinized corn starch; MBP cleavage not mentioned
Assay: radiochemical methyltransferase assay, […]-SAM, ethyl acetate extraction, scintillation counting
Type: biochemical, Illicium anisatum
Settings: co-substrate [Me-14C]-SAM; sodium phosphate pH 7.0; 25°C; 10 min; IAA 0–400 µM; MBP fusion; read-out: apparent Km

O=C(O)Cc1c[nH]c2ccccc12 [IAA, indole-3-acetic acid]
Km: 122 ± 32.9 µM
